Results on 8 molecules are retold here after patent US12186317B2, “Inhibitors of alpha-amino-beta-carboxymuconic acid semialdehyde decarboxylase” (TES Pharma S.r.l., priority 2018, dated 2025).

As a reminder, the IC50 is the concentration needed to halve the response being measured.

Each structure is given as a SMILES string. A value given as a limit tells only on which side of the number the result lay.

This experiment has as its target T1, hACMSD (ACMSD1) (Homo sapiens, UniProt Q8TDX5).
T1 construct: made in house; host or cells: Pichia pastoris
As to the kind of experiment: Determination of ACMSD1 inhibition, spectrophotometrical in vitro assay (conversion of 3OH-anthranilic acid into ACMS). Type of experiment: biochemical. The following applies: HAA concentration of 10 μM; recombinant ACMSD1 from Pichia pastoris; 25° C.; absorbance at 360 nm. The method, then: The activity of compounds as inhibitors of ACMSD1 is determined in a spectrophotometrical in vitro assay. The pre-assay mixture is incubated and a compound of Formula (I) or (II), or a pharmaceutically acceptable salt thereof, and ACMSD1 solution is then added. The effect of ACMS concentration on the enzyme activity is investigated by varying 3-hydroxyanthranilic acid (30H-HA) concentration in the pre-assay mixture. Kinetic parameters are calculated from the initial velocity data using a Lineweaver-Burk plot.
The pre-assay mixture consisting of 3-hydroxyanthranilic acid (30H-HA), 3-hydroxyanthranilic acid, 3,4-diOxygenase (HAO), and a dialyzed crude extract of E. coli BL21 (DE3) cells expressing the recombinant enzyme, was incubated at 25° C. with monitoring of the increase in absorbance at 360 nm due to the formation of ACMS from 30H-HA. After the reaction was completed within ˜2 mins, an aliquot of ACMSD1 solution (prepared and purified from Pichia pastoris overexpressing the recombinant enzyme) was added, and the decrease in absorbance at 360 nm was followed at 15 second intervals. The effect of ACMS concentration on the enzyme activity was investigated by varying 30H-HA concentration from 2 to 20 μM. Kinetic parameters were calculated from the initial velocity data by using the Lineweaver-Burk plot.
The rate of the decrease in absorbance caused by ACMSD1 was calculated by subtracting that of the control reaction mixture without ACMSD from that described above. One unit of ACMSD activity was indicated as the amount of enzyme that converts 1 mmol of ACMS per minute at 25° C.
The enzymatic activity was determined at a HAA concentration of 10 μM in the presence of the compounds in Table 1 below. […] In Table 1, A is <0.1 μM; B is 0.1 to 1 μM; C is 1 to 10 μM; and D is >10 μM.

T1 sequence (Q8TDX5 whole entry): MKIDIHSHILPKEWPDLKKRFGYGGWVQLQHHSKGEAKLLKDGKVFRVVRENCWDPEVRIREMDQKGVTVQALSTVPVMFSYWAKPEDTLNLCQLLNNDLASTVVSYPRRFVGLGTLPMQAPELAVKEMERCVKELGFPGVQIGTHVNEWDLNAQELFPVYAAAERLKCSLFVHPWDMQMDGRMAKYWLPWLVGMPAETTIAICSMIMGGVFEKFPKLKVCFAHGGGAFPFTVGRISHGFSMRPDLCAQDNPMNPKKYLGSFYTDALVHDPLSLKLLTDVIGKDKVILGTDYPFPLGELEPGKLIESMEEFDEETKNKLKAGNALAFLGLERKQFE

With `N#Cc1c(-c2cccs2)nc(SCc2cc(F)c(O)c(F)c2)[nH]c1=O` [I-39, 2-(3,5-Difluoro-4-hydroxy-benzylsulfanyl)-6-oxo-4-thiophen-2-yl-1,6-dihydro-pyrimidine-5-carbonitrile], the IC50 was in the range of 1000 to 10000 nM. As for `N#Cc1c(Cc2ccccc2)nc(SCc2cc(F)c(O)c(F)c2)[nH]c1=O` [I-41, 4-Benzyl-2-(3,5-difluoro-4-hydroxy-benzylsulfanyl)-6-oxo-1,6-dihydro-pyrimidine-5-carbonitrile], the IC50 lay within 1000 to 10000 nM. For `N#Cc1c(-c2cccs2)nc(SCc2cccc(-c3nn[nH]n3)c2)[nH]c1=O` [I-43] the value was < 100 nM; for `N#Cc1c(-c2cccs2)nc(N[C@H]2CC[C@H](C(=O)O)CC2)[nH]c1=O` [I-46], > 10000 nM. As for `N#Cc1c(-c2cccs2)nc(NCc2cccc(C(=O)O)c2)[nH]c1=O` [I-48], the IC50 was 1000 to 10000 nM.

On to `N#Cc1c(-c2cccs2)nc(NCc2cccc(Cc3nnn[nH]3)c2)[nH]c1=O` [I-49], for which the IC50 was < 100 nM.

`N#Cc1c(-c2cccs2)nc(NCc2cccc(CC(=O)O)c2)[nH]c1=O` [I-50]: the IC50 is 1000 to 10000 nM. On to `N#Cc1c(-c2cccs2)nc(NCc2ccc(-c3nnn[nH]3)cc2)[nH]c1=O` [I-51], for which the IC50 lay in the range of 100 to 1000 nM.
